From patent US20080261896A1, “Testosterone generating and metabolizing enhancer” (Sinphar Pharmaceutical Co., Ltd., priority 2007, published 2008)

System: mouse Leydig tumor cell line R2C
Test: Test 1: testosterone generation of the mouse Leydig tumor cell line R2C (Testosterone EIA kit)
Type: cell-based
Settings: R2C cells
Description: Test 1: Testing testosterone generation of the mouse Leydig tumor cell line R2C.
Materials: The extract of C. tubulosa prepared in the aforesaid first embodiment, and said echinacoside and acteoside used in the second and the third embodiments. The mouse Leydig tumor cell line R2C was obtained from the Japan Health Sciences Foundation (Osaka), and a Testosterone EIA testing kit was used to test testosterone levels.
Method: The R2C cells were subcultured in a cell medium called Ham's F10, which comprised 15% bovine serum, 2.5% fetal bovine serum, 100 units/mL penicillin G, and 100 μg/mL streptomycin. The cells were inoculated on a 24-hole plate at a density of 5×10^5 cells/mL, and 500 μL of the cell medium was added into each hole. After culturing for 24 hours, 50 μL of solutions resulted from dissolving samples from the first to the third embodiments in the same cell medium was added into each hole. After culturing for another 4 fours, the cells were collected along with the cell medium and subjected to centrifugation, so as to collect supernatant that included the cell medium. The Testosterone EIA testing kit (manufactured by Cayman Chemical Corporate) was used to determine testosterone concentrations in the each tested sample, and the results were shown in FIG. 1.

| SMILES | testosterone generation (testosterone level in the supernatant) versus control (10 μg/mL) | testosterone generation (testosterone level in the supernatant) versus control (100 μg/mL) | testosterone generation (testosterone level in the supernatant) versus control (30 μg/mL) |
| --- | --- | --- | --- |
| C[C@@H]1O[C@@H](O[C@@H]2[C@@H](O)[C@H](OCCc3ccc(O)c(O)c3)O[C@H](CO)[C@H]2OC(=O)/C=C/c2ccc(O)c(O)c2)[C@H](O)[C@H](O)[C@H]1O [acteoside] | increased | increased | – |
| C[C@@H]1O[C@@H](O[C@@H]2[C@@H](O)[C@H](OCCc3ccc(O)c(O)c3)O[C@H](CO[C@@H]3O[C@H](CO)[C@@H](O)[C@H](O)[C@H]3O)[C@H]2OC(=O)/C=C/c2ccc(O)c(O)c2)[C@H](O)[C@H](O)[C@H]1O [echinacoside] | increased | increased to twice as much as that of the control | increased |
